In US8293489B2, “Methods for detection of biological substances” (priority 2007, dated 2012):
Marks after values point to notes of the source that are not given here.

Assays:
Format in all cases: in vivo, human
[1] = tested on: TRAIL; assay: TRAIL in nasal mucus in patients with hyposmia before and after treatment with theophylline; details: for Nasal mucus TRAIL: patients with hyposmia (5)
Description: Table 16 illustrates detection and measurement of TRAIL in nasal mucus in patients with hyposmia before and after treatment with theophylline at various doses. […] Without limiting the scope of the present invention, other drugs are also considered with in the scope of the present invention for the treatment of various diseases. This is one of the example of the multiple examples of drugs to treat disease in which changes of various substances found in nasal mucus reflect biochemical normalization and functional improvement in the disease process.
Table 16 illustrates detection and measurement of TRAIL in nasal mucus in patients with hyposmia before and after treatment with theophylline at various doses.

[2] = tested on: nitric oxide (NO); assay: NO in nasal mucus in patients with hyposmia before and after theophylline treatment; details: for NO in nasal mucus: Patients (12)
Description: Table 33 in the examples illustrates NO in nasal mucus in patients treated with theophylline in various doses before and after drug treatment. NO levels in nasal mucus changed following the treatment of patients with smell loss. […] Its continual measurement during treatment of the disorders helps in monitoring efficacy of therapy. The detection of NO in nasal mucus provides a non invasive method of diagnosing various diseases related to human physiology and pathology. The methods of the present invention include treatment of diseases by modulating the concentrations of NO by use of drugs or agents. The method of treatment is preferably by nasal administration.
Table 33 illustrates NO levels in nasal mucus in patients treated with Theophylline in various doses before and after drug treatment. NO levels in nasal mucus changed following the treatment of patients with smell loss. […] Its continual measurement during treatment of these disorders helps in monitoring efficacy of therapy. The detection of NO in nasal mucus provides a non invasive method of diagnosing various diseases related to human physiology and pathology.

[3] = tested on: TNFR 1; assay: TNFR 1 in nasal mucus in patients with hyposmia treated with theophylline
Description: (§1) Tables 36-38 illustrate detection and measurement of TNFα, TNFR 1 and TNFR 2 in nasal mucus of patients with graded loss of smell following treatment with theophylline. […] Further, nasal mucus can be used as an index of disease, disease severity and efficacy of disease treatment. Without limiting the scope of the present invention, this approach is applicable to other substances in nasal mucus in relationship to other disease processes (e.g., cancer, stroke) and to follow-up of their treatment with any drug. […]
With increased smell loss pre treatment TNFR 1 levels were increased in nasal mucus in patients with Type I hyposmia (whose smell loss was increased over that of patients with Type II hyposmia). After theophylline treatment, as a dose of drug increased, TNFR 1 levels decreased in Type I associated with increases in smell function. […] The greater was the smell loss, the higher was the level of TNFR 1.

[4] = tested on: TNFR 2; assay: TNFR 2 in nasal mucus in patients with hyposmia treated with theophylline
Description: Tables 36-38 illustrate detection and measurement of TNFα, TNFR 1 and TNFR 2 in nasal mucus of patients with graded loss of smell following treatment with theophylline. […] Further, nasal mucus can be used as an index of disease, disease severity and efficacy of disease treatment. Without limiting the scope of the present invention, this approach is applicable to other substances in nasal mucus in relationship to other disease processes (e.g., cancer, stroke) and to follow-up of their treatment with any drug.
Table 35 illustrates detection and measurement of TNFα, and soluble TNF receptors 1 and 2, moieties in the nasal mucus. TNFα, and soluble TNF receptors 1 and 2 increase in systems undergoing excessive apoptosis.
With a dose dependent increase of theophylline treatment levels of TNFR 2 in nasal mucus decreased consistent with a dose dependent increase in smell function. Levels of TNFR 2 in patients with Type I and Type II hyposmia decreased almost 50% on 600 mg theophylline consistent with their greatest return of smell function. At this highest level of theophylline levels of TNFR 2 were decreased in relationship to the decrease in smell function—TNFR 2, Type I>Type II>Type III; smell loss, Type I>Type II>Type III.

[5] = tested on: TNFα; assay: TNFα in nasal mucus in patients with hyposmia treated with theophylline
Description: as §1
These studies were extended to reveal levels of TNFα in nasal mucus of patients with graded loss of smell following treatment with theophylline (Table 36). Smell loss was graded such that loss was greatest in Type I hyposmia, less in Type II and still less in Type III (I>II>III). […] In Type I hyposmia TNFα decreased 40% after treatment with 400 mg theophylline and 57% after treatment 600 mg. In Type II hyposmia TNFα decreased 11% after treatment with 600 mg theophylline.

[6] = tested on: patients with hyposmia; assay: Smell function in patients with hyposmia treated with theophylline
Description: Theophylline may also restore smell function through other mechanisms.
Its continual measurement during treatment of these disorders helps in monitoring efficacy of therapy. The detection of NO in nasal mucus provides a non invasive method of diagnosing various diseases related to human physiology and pathology.

[7] = patients with hyposmia, theophylline at various doses
[8] = patients with hyposmia, theophylline in graded doses
[9] = HYPOSMIA TYPE I (7), theophylline 200 mg orally daily
[10] = HYPOSMIA TYPE I (7), theophylline 600 mg orally daily
[11] = HYPOSMIA TYPE II (10), theophylline 200 mg orally daily
[12] = HYPOSMIA TYPE II (10), theophylline 400 mg orally daily
[13] = HYPOSMIA TYPE II (10), theophylline 600 mg orally daily
[14] = HYPOSMIA TYPE III (2), theophylline 600 mg orally daily
[15] = patients with hyposmia, stepwise increase in theophylline treatment

Compound: Cn1c(=O)c2[nH]cnc2n(C)c1=O [theophylline]
- Nasal mucus TRAIL ([1]; theophylline 200 mg): 855 µg/mL
- Nasal mucus TRAIL ([1]; theophylline 400 mg): 791 µg/mL
- Nasal mucus TRAIL ([1]; theophylline 600 mg): 247 µg/mL
- change in TRAIL in nasal mucus [1, 7]: dose-dependent decrease in TRAIL
- NO in nasal mucus ([2]; Theophylline 200 mg): 0.25 ± 0.01 µg/mL
- NO in nasal mucus ([2]; Theophylline 400 mg): 0.40 ± 0.06 µg/mL
- NO in nasal mucus ([2]; Theophylline 600 mg): 0.59 ± 0.16 µg/mL
- change in NO in nasal mucus [2, 8]: increases in nasal mucus NO
- TNFR 1 in nasal mucus [3, 9]: 6,521 ± 1,304^c
- TNFR 1 in nasal mucus ([3]; HYPOSMIA TYPE I (7), theophylline 400 mg orally daily): 1,498
- TNFR 1 in nasal mucus [3, 10]: 1,832 ± 704^a
- TNFR 1 in nasal mucus [3, 11]: 1,462 ± 371
- TNFR 1 in nasal mucus [3, 12]: 1,087 ± 335
- TNFR 1 in nasal mucus [3, 13]: 862 ± 335
- TNFR 1 in nasal mucus [3, 14]: 585 ± 335
- change in TNFR 1 levels in nasal mucus ([3]; Type I hyposmia, as dose of drug increased): decreased
- TNFR 1 in nasal mucus ([3]; patients with hyposmia (19), Theophylline treatment 200): 3,148 ± 663 pg/ml
- TNFR 1 in nasal mucus ([3]; patients with hyposmia (19), Theophylline treatment 400): 1,146 ± 220^b pg/ml
- TNFR 1 in nasal mucus ([3]; patients with hyposmia (19), Theophylline treatment 600): 1,220 ± 286^ab pg/ml
- change in soluble TNF receptor 1 in nasal mucus [3, 15]: significant dose-response decrease
- TNFR 2 in nasal mucus [4, 9]: 3,100 ± 1,184
- TNFR 2 in nasal mucus [4, 10]: 1,491 ± 1,102
- TNFR 2 in nasal mucus [4, 11]: 1,378 ± 480
- TNFR 2 in nasal mucus [4, 12]: 1,014 ± 272
- TNFR 2 in nasal mucus [4, 13]: 553 ± 158
- TNFR 2 in nasal mucus [4, 14]: 436 ± 443
- change in TNFR 2 levels in nasal mucus ([4]; dose dependent increase of theophylline treatment): decreased
- decrease in TNFR 2 levels in nasal mucus ([4]; patients with Type I and Type II hyposmia, 600 mg theophylline): ~50%
- TNFR 2 in nasal mucus ([4]; patients with hyposmia (18), Theophylline treatment (mg orally daily) 200): 1,952 ± 339 pg/ml
- TNFR 2 in nasal mucus ([4]; patients with hyposmia (18), Theophylline treatment (mg orally daily) 400): 949 ± 180^c pg/ml
- TNFR 2 in nasal mucus ([4]; patients with hyposmia (18), Theophylline treatment (mg orally daily) 600): 916 ± 344 pg/mL
- change in soluble TNF receptor 2 in nasal mucus [4, 15]: significant dose-response decrease
- TNF∝ in nasal mucus ([5]; HYPOSMIA TYPE I (8), theophylline 400 mg orally daily): 15.6
- TNF∝ in nasal mucus ([5]; HYPOSMIA TYPE I (8), theophylline 600 mg orally daily): 11.2 ± 4.4
- TNF∝ in nasal mucus ([5]; HYPOSMIA TYPE II (13), theophylline 200 mg orally daily): 14.9 ± 2.5
- TNF∝ in nasal mucus ([5]; HYPOSMIA TYPE II (13), theophylline 400 mg orally daily): 11.5 ± 3.2
- TNF∝ in nasal mucus ([5]; HYPOSMIA TYPE II (13), theophylline 600 mg orally daily): 4.3 ± 0.8^a
- TNF∝ in nasal mucus ([5]; HYPOSMIA TYPE III (3), theophylline 600 mg orally daily): 1.2 ± 0.7^bc
- decrease in TNFα in nasal mucus ([5]; Type I hyposmia, after treatment 600 mg theophylline): 57%
- decrease in TNFα in nasal mucus ([5]; Type I hyposmia, after treatment with 400 mg theophylline): 40%
- decrease in TNFα in nasal mucus ([5]; Type II hyposmia, after treatment with 600 mg theophylline): 11%
- change in TNFα levels in nasal mucus ([5]; each hyposmia patient group, with each increased dose of theophylline): decreased in each patient group
- TNF∝ in nasal mucus ([5]; patients with hyposmia (24), Theophylline treatment (mg/l) 200): 20.0 ± 2.8 pg/mL
- TNF∝ in nasal mucus ([5]; patients with hyposmia (24), Theophylline treatment (mg/l) 400): 12.1 ± 2.1^d pg/ml
- TNF∝ in nasal mucus ([5]; patients with hyposmia (24), Theophylline treatment (mg/l) 600): 7.4 ± 1.8^a pg/ml
- change in TNFα in nasal mucus [5, 15]: significant dose-response decrease
- smell function ([6]; patients with hyposmia (loss of smell), general statement): restores smell function in some patients with hyposmia
- smell function ([6]; patients with hyposmia, 600 mg theophylline): restored smell function to or toward normal
- smell function [6, 7]: returned smell function to normal in a dose-dependent manner
- smell function [6, 8]: graded increases in smell function
